Source: US20120190703A1, “SALTS OF 13A-(S)DESOXYTYLOPHORININE, PREPARATION METHODS AND PHARMACEUTICAL COMPOSITIONS AND USES THEREOF” (priority 2009, published 2012)
Where “and” joins values, the source holds several entries; their conditions need not be identical. Identical values can stand only once. Counter-ions that a name gives are not always drawn. Like-named read-outs stand apart in the source and are kept apart here. Marks after values point to notes of the source that are not given here.

Columns and labels:
H22 tumor-bearing mice [1] = tested on: H22 tumor-bearing mice
Procedure: To observe the impact of 13a-(S)-deoxytylophorinine Sulfate: on the tumor growth of H22 tumor-bearing mice.
Male Kunming mice were obtained from the Laboratory Animal Center, Academy of Military Medical Science. Body weight 18˜22 g.
(+)-13a-(S)-deoxytylophorinine Sulfate, Cytoxane (CTX) as positive control.
All the samples were administered orally. o.d. 0.2 ml/10 g.
(+)-13a-(S)-deoxytylophorinine Sulfate was administered at five dose groups: 3 mg/kg, 4 mg/kg, 5 mg/kg, 6 mg/kg and 8 mg/kg.
(§1) Animals were reared in SPF grade circumstance to be observed for 24 h. The tumor cells liquid which resuscitated in abdominal cavity of KM species mice was diluted with aseptic normal saline at 1:3 ratio. The resulting liquid was inoculated subcutaneously at forelimb with 0.2 mL every animal. After the injection over, the animals were divided to 13 groups. Experimental samples were administered 24 h after inoculation.

H22 tumor-bearing mice [2] = tested on: H22 tumor-bearing mice; remark: listed apart in the source
Excerpt: To determine the pharmacodynamic characters of 13a-(S)-deoxytylophorinine and its salts, the impact of these compounds to the tumor growth in H22 tumor-bearing mice was surveyed.
Male Kunming mice were obtained from the Laboratory Animal Center, Academy of Military Medical Science. Body weight 18˜22 g. 6 animals per group, totally 10 groups, 60 animals.
(+)-13a-(S)-deoxytylophorinine, (+)-13a-(S)-deoxytylophorinine Tartrate, (+)-13a-(S)-deoxytylophorinine Maleate, (+)-13a-(S)-deoxytylophorinine Citrate, Cytoxane (CTX) as positive control.
(+)-13a-(S)-deoxytylophorinine was administered at high dose (5 mg/kg) and low dose (2.5 mg/kg). Three (+)-13a-(S)-deoxytylophorinine salts were administered at high dose and low dose as equal moles with their prototype (Tartrate: 7.05 mg/kg, 3.53 mg/kg; Malate: 6.60 mg/kg, 3.30 mg/kg; Citrate: 7.90 mg/kg, 3.95 mg/kg).
as §1, with “KM” for “KM species”, “[…] with 6 animals per group.” for “13 groups. Experimental samples were administered 24 h after inoculation.”
Four experimental samples were intragastric administered once daily 24 h after inoculation. The positive control CTX was intraperitoneal injected once daily. The animal body weight was recorded every day.

[3] = Plasma pharmacokinetics after oral administration in mice
Procedure: To determine the pharmacokinetic characters of 13a-(S)-deoxytylophorinine and its salts, the studies about plasma pharmacokinetics and the character of distribution in brain were pursued.
(§2) Male ICR mice. Body weight 18˜22 g.
(+)-13a-(S)-deoxytylophorinine Tartrate, (+)-13a-(S)-deoxytylophorinine Maleate, (+)-13a-(S)-deoxytylophorinine Citrate. All were dissolved in distilled water as 0.6 mg/ml solution before experiment progressed.
72 mice were divided to 3 groups with 24 animals per group, fasting for 16 h and drinking water freely. […] Plasma was isolated by centrifugalization. After the salts were administered orally, the brain tissues of mice were collected at 5 min, 15 min, 2 h time points. 25% tissue homogenate was prepared with normal saline addition. 200 μL of homogenate and plasma were added isovolumic MeCN to precipitate protein. 5 μL of clear supernatant was analyzed by LC/MS/MS.
(+)-13a-(S)-deoxytylophorinine was dissolved in DMSO and then diluted with MeOH with concentration 10, 50, 100, 500, 1000 and 2500 ng/ml respectively. 10 μl of standard solutions of (+)-13a-(S)-deoxytylophorinine with different concentration above were added to 200 μl of blank plasma sequently to adjust the concentration to 0.5, 2.5, 5, 25, 50, 125 ng/ml respectively. MeCN was added to the solution to precipitate protein, and 5 μl of result clear supernatant was analyzed with LC/MS/MS. Linear regression was ran with the peak area of (+)-13a-(S)-deoxytylophorinine as ordinate and the concentrations as abscissa.

Solubility in water = format: physicochemical; settings: for solubility: water
[4] = Drug distribution in brain tissue after oral administration in mice; format: in vivo, ICR mice; settings: for Brain contents of (+)-13a-(S)-deoxytylophorinine (ng/ml), Mean ± SD / Brain contents of (+)-13a-(S)-deoxytylophorinine (ng/ml), individual animals 1-3: 6 mg/kg oral
Procedure: as §2
Plasma was isolated by centrifugalization. […] 25% tissue homogenate was prepared with normal saline addition.
The drug concentration-time data in brain tissue after administered orally of (+)-13a-(S)-deoxytylophorinine tartrate, maleate and citrate were represented in Table 8˜10 and FIG. 6˜8. […] (+)-13a-(S)-deoxytylophorinine could be detected in 5 min. The peak concentration was reached after 15 min, and the compound still can be detected after 2 h after administration.

[5] = 6 mg/kg oral, mice, Time (min) 0.5
[6] = 6 mg/kg oral, mice, Time (min) 1
[7] = male, ICR, mouse, plasma, po, 6 mg/kg
[8] = high dose × 7 d, intragastric once daily, equal moles: prototype 5.0, tartrate 7.05, maleate 6.60, citrate 7.90 mg/kg
[9] = low dose × 7 d, intragastric once daily, equal moles: prototype 2.5, tartrate 3.53, maleate 3.30, citrate 3.95 mg/kg

O=P1(N(CCCl)CCCl)NCCCO1 (stereo not drawn) [CTX, Cytoxan, reference compound]
Animal No. (Initial/Final) (H22 tumor-bearing mice [1]; 100 mg/kg × 1, i.p.): 6/6 | Body Weight(g) Final (H22 tumor-bearing mice [1]; 100 mg/kg × 1, i.p.): 25.00 ± 2.37 g | Body Weight(g) Initial (H22 tumor-bearing mice [1]; 100 mg/kg × 1, i.p.): 20.67 ± 2.07 g⁻¹ | Inhibition (%) (H22 tumor-bearing mice [1]; 100 mg/kg × 1, i.p.): 94.76** % | Tumor Weight (g, mean ± SD) (H22 tumor-bearing mice [1]; 100 mg/kg × 1, i.p.): 0.07 ± 0.04 g | Animal No. (Initial/Final) (H22 tumor-bearing mice [2]; 100 mg/kg × 1, i.p.): 6/6 | Body Weight(g) Final (H22 tumor-bearing mice [2]; 100 mg/kg × 1, i.p.): 23.77 ± 1.38 g | Body Weight(g) Initial (H22 tumor-bearing mice [2]; 100 mg/kg × 1, i.p.): 21.33 ± 1.63 g⁻¹ | Inhibition (%) (H22 tumor-bearing mice [2]; 100 mg/kg × 1, i.p.): 48.47* % | Tumor Weight (g, mean ± SD) (H22 tumor-bearing mice [2]; 100 mg/kg × 1, i.p.): 0.59 ± 0.26 g

COc1ccc2c3c(c4cc(OC)c(OC)cc4c2c1)CN1CCC[C@H]1C3.O=C(O)CC(O)(CC(=O)O)C(=O)O [Citrate, (+)-13a-(S)-deoxytylophorinine Citrate]
Peak concentration in blood ([3]; 6 mg/kg oral, mice): 20.1 ± 12.2 ng/mL | Time of peak concentration in blood ([3]; 6 mg/kg oral, mice): 15 min | t½z ([3]; 6 mg/kg oral, mice, plasma, non-compartment model): 51.6 min | Blood concentration of (+)-13a-(S)-deoxytylophorinine (ng/ml), Mean ± SD [3, 5]: 12.6 ± 6.5 ng/mL | Blood concentration of (+)-13a-(S)-deoxytylophorinine (ng/ml), individual animals 1-3 [3, 5]: 20.1 ng/mL and 8.4 ng/mL and 9.3 ng/mL | Blood concentration of (+)-13a-(S)-deoxytylophorinine (ng/ml), Mean ± SD [3, 6]: 8.4 ± 2.9 ng/mL | Blood concentration of (+)-13a-(S)-deoxytylophorinine (ng/ml), individual animals 1-3 [3, 6]: 11.2 ng/mL and 5.4 ng/mL and 8.5 ng/mL | AUC(0-inf) [3, 7]: 33.1 ng·h/mL | AUC(0-t) [3, 7]: 32.7 ng·h/mL | Cmax [3, 7]: 20.1 ng/mL | MRT inf [3, 7]: 2.29 h | MRT last [3, 7]: 1.73 h | Tmax [3, 7]: 15 min | Solubility in water (words) (Solubility in water): soluble in water | solubility (Solubility in water): 33 mg/mL | Animal No. (Initial/Final) (H22 tumor-bearing mice [2]; [8]): 6/5 | Body Weight(g) Final (H22 tumor-bearing mice [2]; [8]): 14.27 ± 2.61 g | Body Weight(g) Initial (H22 tumor-bearing mice [2]; [8]): 22.00 ± 1.55 g⁻¹ | Inhibition (%) (H22 tumor-bearing mice [2]; [8]): 80.44** % | Tumor Weight (g, mean ± SD) (H22 tumor-bearing mice [2]; [8]): 0.22 ± 0.13 g | Animal No. (Initial/Final) (H22 tumor-bearing mice [2]; [9]): 6/6 | Body Weight(g) Final (H22 tumor-bearing mice [2]; [9]): 21.01 ± 2.04 g | Body Weight(g) Initial (H22 tumor-bearing mice [2]; [9]): 21.83 ± 0.75 g⁻¹ | Inhibition (%) (H22 tumor-bearing mice [2]; [9]): 46.87* % | Tumor Weight (g, mean ± SD) (H22 tumor-bearing mice [2]; [9]): 0.61 ± 0.35 g | Brain contents of (+)-13a-(S)-deoxytylophorinine (ng/ml), Mean ± SD ([4]; Time (min) 5): 23.6 ± 12.7 ng/mL | Brain contents of (+)-13a-(S)-deoxytylophorinine (ng/ml), individual animals 1-3 ([4]; Time (min) 5): 22.0 ng/mL and 37.1 ng/mL and 11.8 ng/mL | Brain contents of (+)-13a-(S)-deoxytylophorinine (ng/ml), Mean ± SD ([4]; Time (min) 15): 87.3 ± 50.1 ng/mL | Brain contents of (+)-13a-(S)-deoxytylophorinine (ng/ml), individual animals 1-3 ([4]; Time (min) 15): 84.8 ng/mL and 138.7 ng/mL and 38.5 ng/mL | Brain contents of (+)-13a-(S)-deoxytylophorinine (ng/ml), Mean ± SD ([4]; Time (min) 120): 48.7 ± 14.1 ng/mL | Brain contents of (+)-13a-(S)-deoxytylophorinine (ng/ml), individual animals 1-3 ([4]; Time (min) 120): 37.0 ng/mL and 44.8 ng/mL and 64.4 ng/mL | Drug contents in brain compared with prototype ([4]; oral, 3 time points): lower than its prototype

COc1ccc2c3c(c4cc(OC)c(OC)cc4c2c1)CN1CCC[C@H]1C3 [Sulfate, (+)-13a-(S)-deoxytylophorinine Sulfate]
Animal No. (Initial/Final) (H22 tumor-bearing mice [1]; 3 mg/kg × 7, oral (o.p.)): 6/6 | Body Weight(g) Final (H22 tumor-bearing mice [1]; 3 mg/kg × 7, oral (o.p.)): 26.83 ± 2.56 g | Body Weight(g) Initial (H22 tumor-bearing mice [1]; 3 mg/kg × 7, oral (o.p.)): 20.67 ± 0.52 g⁻¹ | Inhibition (%) (H22 tumor-bearing mice [1]; 3 mg/kg × 7, oral (o.p.)): 22.49* % | Tumor Weight (g, mean ± SD) (H22 tumor-bearing mice [1]; 3 mg/kg × 7, oral (o.p.)): 0.98 ± 0.21 g | Animal No. (Initial/Final) (H22 tumor-bearing mice [1]; 4 mg/kg × 7, oral (o.p.)): 6/6 | Body Weight(g) Final (H22 tumor-bearing mice [1]; 4 mg/kg × 7, oral (o.p.)): 22.83 ± 2.40 g | Body Weight(g) Initial (H22 tumor-bearing mice [1]; 4 mg/kg × 7, oral (o.p.)): 20.00 ± 1.26 g⁻¹ | Inhibition (%) (H22 tumor-bearing mice [1]; 4 mg/kg × 7, oral (o.p.)): 52.51* % | Tumor Weight (g, mean ± SD) (H22 tumor-bearing mice [1]; 4 mg/kg × 7, oral (o.p.)): 0.60 ± 0.32 g | Animal No. (Initial/Final) (H22 tumor-bearing mice [1]; 5 mg/kg × 7, oral (o.p.)): 6/6 | Body Weight(g) Final (H22 tumor-bearing mice [1]; 5 mg/kg × 7, oral (o.p.)): 22.17 ± 5.31 g | Body Weight(g) Initial (H22 tumor-bearing mice [1]; 5 mg/kg × 7, oral (o.p.)): 19.83 ± 1.72 g⁻¹ | Inhibition (%) (H22 tumor-bearing mice [1]; 5 mg/kg × 7, oral (o.p.)): 41.75* % | Tumor Weight (g, mean ± SD) (H22 tumor-bearing mice [1]; 5 mg/kg × 7, oral (o.p.)): 0.73 ± 0.39 g | Deaths of mice (table note) (H22 tumor-bearing mice [1]; 6 mg/kg orally): After (+)-13a-(S)-deoxytylophorinine Sulfate (6 mg/kg) was administered orally, one of mice died on sixth day, two of mice died on seventh day. Stop administion. | Animal No. (Initial/Final) (H22 tumor-bearing mice [1]; 6 mg/kg × 6, oral (o.p.)): 6/3 | Body Weight(g) Final (H22 tumor-bearing mice [1]; 6 mg/kg × 6, oral (o.p.)): 15.33 ± 3.21 g | Body Weight(g) Initial (H22 tumor-bearing mice [1]; 6 mg/kg × 6, oral (o.p.)): 19.83 ± 1.72 g⁻¹ | Inhibition (%) (H22 tumor-bearing mice [1]; 6 mg/kg × 6, oral (o.p.)): 68.52** % | Tumor Weight (g, mean ± SD) (H22 tumor-bearing mice [1]; 6 mg/kg × 6, oral (o.p.)): 0.40 ± 0.24 g | Deaths of mice (table note) (H22 tumor-bearing mice [1]; 8 mg/kg orally): After (+)-13a-(S)-deoxytylophorinine Sulfate (8 mg/kg) was administered orally, one of mice died on sixth day, two of mice died on seventh day. Stop administion. | Animal No. (Initial/Final) (H22 tumor-bearing mice [1]; 8 mg/kg × 6, oral (o.p.)): 6/0 | Body Weight(g) Initial (H22 tumor-bearing mice [1]; 8 mg/kg × 6, oral (o.p.)): 20.67 ± 1.03 g⁻¹ | Inhibition (%) (H22 tumor-bearing mice [1]; 8 mg/kg × 6, oral (o.p.)): 88.49** % | Tumor Weight (g, mean ± SD) (H22 tumor-bearing mice [1]; 8 mg/kg × 6, oral (o.p.)): 0.15 ± 0.04 g | solubility (Solubility in water): 200 mg/mL
